In ChEMBL document CHEMBL3885881, “DrugMatrix”:

Species: Rattus norvegicus
Test: DrugMatrix - Regimen: Daily Repeat
Format: toxicity, organism-based, Sprague-Dawley
Set-up: regimen Daily Repeat, gender Male, age 6-8 weeks
Conditions: in vivo, po, 900 mg/kg, route oral GAVAGE, dose level High, […]; for ABSOLUTE BASOPHIL / ABSOLUTE EOSINOPHIL / ABSOLUTE LYMPHOCYTE / ABSOLUTE MONOCYTE / BASOPHIL / EOSINOPHIL / ERYTHROCYTE COUNT / HEMATOCRIT / HEMOGLOBIN / LEUKOCYTE COUNT / LYMPHOCYTE / MEAN CORPUSCULAR HEMOGLOBIN / MEAN CORPUSCULAR HEMOGLOBIN CONCENTRATION / MEAN CORPUSCULAR VOLUME / MONOCYTE / NEUTROPHIL / PLATELET COUNT: tissue Blood
[1] = 72 h, tissue Plasma, time 3 day
[2] = 120 h, tissue Plasma, time 5 day

**Q.** What does the source list for `Clc1ccc(Cl)cc1` [1,4-DICHLOROBENZENE]?
**A.** ABSOLUTE BASOPHIL (72 h, time 3 day): 33.3 cells/µL; ABSOLUTE EOSINOPHIL (72 h, time 3 day): 40 cells/µL; ABSOLUTE LYMPHOCYTE (72 h, time 3 day): 9740 cells/µL; ABSOLUTE MONOCYTE (72 h, time 3 day): 310 cells/µL; BASOPHIL (72 h, time 3 day): 0.27%; EOSINOPHIL (72 h, time 3 day): 0.33%; ERYTHROCYTE COUNT (72 h, time 3 day): 7.33 x10E6/uL; HEMATOCRIT (72 h, time 3 day): 47.67%; HEMOGLOBIN (72 h, time 3 day): 15.3 G/DL; LEUKOCYTE COUNT (72 h, time 3 day): 11.53 x10E3/uL; LYMPHOCYTE (72 h, time 3 day): 85.37%; MEAN CORPUSCULAR HEMOGLOBIN (72 h, time 3 day): 20.83 pg; MEAN CORPUSCULAR HEMOGLOBIN CONCENTRATION (72 h, time 3 day): 32.07 G/DL; MEAN CORPUSCULAR VOLUME (72 h, time 3 day): 65 fL; MONOCYTE (72 h, time 3 day): 2.5%; NEUTROPHIL (72 h, time 3 day): 11%; PLATELET COUNT (72 h, time 3 day): 1237 x10E3/uL; ALANINE AMINOTRANSFERASE [1]: 80.33 u/L; ALBUMIN [1]: 3.47 G/DL; ALKALINE PHOSPHATASE [1]: 437.33 u/L; ASPARTATE AMINOTRANSFERASE [1]: 129.33 u/L; BLOOD UREA NITROGEN [1]: 18.67 mg/dL; CARBON DIOXIDE [1]: 40 mmol/L; CHLORIDE [1]: 106.67 MEQ/L; CHOLESTEROL [1]: 71 mg/dL; CREATINE PHOSPHOKINASE [1]: 391 u/L; CREATININE [1]: 0.63 mg/dL; GLUCOSE [1]: 167.33 mg/dL; LIPASE [1]: 199.33 u/L; PHOSPHORUS [1]: 9.67 mg/dL; POTASSIUM [1]: 5.7 MEQ/L; SODIUM [1]: 148.67 MEQ/L; TOTAL BILIRUBIN [1]: 0.83 mg/dL; TOTAL PROTEIN [1]: 5.53 G/DL; URIC ACID [1]: 0.77 mg/dL; ABSOLUTE BASOPHIL (120 h, time 5 day): 30 cells/µL; ABSOLUTE EOSINOPHIL (120 h, time 5 day): 80 cells/µL; ABSOLUTE LYMPHOCYTE (120 h, time 5 day): 9070 cells/µL; ABSOLUTE MONOCYTE (120 h, time 5 day): 300 cells/µL; BASOPHIL (120 h, time 5 day): 0.3%; EOSINOPHIL (120 h, time 5 day): 0.73%; ERYTHROCYTE COUNT (120 h, time 5 day): 7.06 x10E6/uL; HEMATOCRIT (120 h, time 5 day): 45.4%; HEMOGLOBIN (120 h, time 5 day): 14.13 G/DL; LEUKOCYTE COUNT (120 h, time 5 day): 11.69 x10E3/uL; LYMPHOCYTE (120 h, time 5 day): 77.37%; MEAN CORPUSCULAR HEMOGLOBIN (120 h, time 5 day): 20.03 pg; MEAN CORPUSCULAR HEMOGLOBIN CONCENTRATION (120 h, time 5 day): 31.1 G/DL; MEAN CORPUSCULAR VOLUME (120 h, time 5 day): 64.53 fL; MONOCYTE (120 h, time 5 day): 2.57%; NEUTROPHIL (120 h, time 5 day): 18.23%; PLATELET COUNT (120 h, time 5 day): 1234.33 x10E3/uL; ALANINE AMINOTRANSFERASE [2]: 88.67 u/L; ALBUMIN [2]: 3.83 G/DL; ALKALINE PHOSPHATASE [2]: 433.33 u/L; ASPARTATE AMINOTRANSFERASE [2]: 100.33 u/L; BLOOD UREA NITROGEN [2]: 16 mg/dL; CARBON DIOXIDE [2]: 42.33 mmol/L; CHLORIDE [2]: 105.33 MEQ/L; CHOLESTEROL [2]: 119 mg/dL; CREATINE PHOSPHOKINASE [2]: 376.67 u/L; CREATININE [2]: 0.5 mg/dL; GLUCOSE [2]: 166.67 mg/dL; LIPASE [2]: 96 u/L; PHOSPHORUS [2]: 9.13 mg/dL; POTASSIUM [2]: 5.73 MEQ/L; SODIUM [2]: 148.67 MEQ/L; TOTAL BILIRUBIN [2]: 0.6 mg/dL; TOTAL PROTEIN [2]: 6.27 G/DL; URIC ACID [2]: 0.57 mg/dL; ABSOLUTE BASOPHIL (time 14 day): 52 cells/µL; ABSOLUTE EOSINOPHIL (time 14 day): 38 cells/µL; ABSOLUTE LYMPHOCYTE (time 14 day): 10600 cells/µL; ABSOLUTE MONOCYTE (time 14 day): 320 cells/µL; BASOPHIL (time 14 day): 0.36%; EOSINOPHIL (time 14 day): 0.28%; ERYTHROCYTE COUNT (time 14 day): 7.26 x10E6/uL; HEMATOCRIT (time 14 day): 44.36%; HEMOGLOBIN (time 14 day): 14.58 G/DL; LEUKOCYTE COUNT (time 14 day): 14.34 x10E3/uL; LYMPHOCYTE (time 14 day): 74.48%; MEAN CORPUSCULAR HEMOGLOBIN (time 14 day): 20.04 pg; MEAN CORPUSCULAR HEMOGLOBIN CONCENTRATION (time 14 day): 32.82 G/DL; MEAN CORPUSCULAR VOLUME (time 14 day): 61.16 fL; MONOCYTE (time 14 day): 2.18%; NEUTROPHIL (time 14 day): 22.12%; PLATELET COUNT (time 14 day): 1242.2 x10E3/uL; ALANINE AMINOTRANSFERASE (tissue Plasma, time 14 day): 68 u/L; ALBUMIN (tissue Plasma, time 14 day): 4.02 G/DL; ALKALINE PHOSPHATASE (tissue Plasma, time 14 day): 529.2 u/L; ASPARTATE AMINOTRANSFERASE (tissue Plasma, time 14 day): 89.8 u/L; BLOOD UREA NITROGEN (tissue Plasma, time 14 day): 15.8 mg/dL; CARBON DIOXIDE (tissue Plasma, time 14 day): 43.6 mmol/L; CHLORIDE (tissue Plasma, time 14 day): 102.2 MEQ/L; CHOLESTEROL (tissue Plasma, time 14 day): 110.2 mg/dL; CREATINE PHOSPHOKINASE (tissue Plasma, time 14 day): 309 u/L; CREATININE (tissue Plasma, time 14 day): 0.78 mg/dL; GLUCOSE (tissue Plasma, time 14 day): 134.2 mg/dL; LACTATE DEHYDROGENASE (tissue Plasma, time 14 day): 217.6 u/L; LIPASE (tissue Plasma, time 14 day): 10 u/L; PHOSPHORUS (tissue Plasma, time 14 day): 9.34 mg/dL; POTASSIUM (tissue Plasma, time 14 day): 5.94 MEQ/L; SODIUM (tissue Plasma, time 14 day): 147.8 MEQ/L; TOTAL BILIRUBIN (tissue Plasma, time 14 day): 0.44 mg/dL; TOTAL PROTEIN (tissue Plasma, time 14 day): 6.7 G/DL; URIC ACID (tissue Plasma, time 14 day): 0.52 mg/dL
